Assay results from US20210046063A1 (University of Kentucky Research Foundation, priority 2019, published 2021).
Entries after “also recorded” stand apart in the source; their conditions may differ.

How the values were obtained:
[1] = test system: GRP78 on lung cancer cell surface; assay: Analysis for GRP78 at the cell surface of lung cancer cells; type: cell-based; conditions: CZT (1 μM), 24 h, FIG. 1B
From the text: Analysis for GRP78 at the cell surface. Mean+SD shown. *P<0.01 by Anova or Student's t test. P>0.05 by Anova.
A lack of cell surface […] expression may prevent secreted Par-4 from inducing apoptosis in cancer cells.

LLC1 cells = assay: LLC1-derived lung tumor nodules in mice; type: in vivo; conditions: FIG. 2
Method: Mice were injected i.v. with LLC1 cells, and 24 h later injected i.p. with CQ (25 mg/kg body weight), CZT (10 mg/kg body weight), CQ+CZT (25 and 10 mg/kg, resp.) or vehicle once every day for 5 consecutive days. After 28 days, the lungs were scored for tumor nodules. *P<0.01 by Anova test.

[2] = test system: lung cancer cell lines (A549/EML4-ALK, A549, A549TR, H1299, KP-7B); assay: Apoptosis of lung cancer cells (ICC for active caspase-3, scored by confocal microscopy); type: cell-based; conditions: 24 h
Method: Lung cancer cells treated with vehicle, CQ (100 nM), CZT (25 μM), and a combination of CZT (1 μM) and CQ (25 nM) for 24 h.

Par-4 secretion = conditions: cited from earlier work
Par-4 = conditions: cancer patients, Phase 1 clinical trials; cited from earlier work

C[C@@H](Oc1cc(-c2cnn(C3CCNCC3)c2)cnc1N)c1c(Cl)ccc(F)c1Cl [CZT, Crizotinib]
GRP78 expression at the cell surface [1]: upregulates GRP78 expression on the surface of lung cancer cells; also recorded: elevation of Par-4 receptor GRP78 on lung tumor cell surface
inhibition of lung tumor growth (lung tumor nodules) (LLC1 cells; LLC1 cells i.v., i.p. CQ 25 mg/kg, CZT 10 mg/kg, once daily for 5 days, lungs scored after 28 days): significant inhibition of lung tumor growth; also recorded: showed an effect

CCN(CC)CCCC(C)Nc1ccnc2cc(Cl)ccc12 (stereo not drawn) [CQ, Chloroquine]
apoptosis, CQ in conjunction with CZT added directly to cancer cells ([2]; combination of CZT (1 μM) and CQ (25 nM), P>0.05, FIG. 1C): did not induce apoptosis
inhibition of lung tumor nodules by CQ in the presence of CZT, relative to CZT or CQ administered separately (LLC1 cells; LLC1-derived nodules in mice, CQ 25 mg/kg + CZT 10 mg/kg i.p.): significantly greater inhibition
Par-4 secretion from lung cancer cells (Par-4 secretion; lung cancer cells): did not show secretion of Par-4
Par-4 secretion from normal cells (Par-4 secretion; normal cells, cell culture and mice): increased Par-4 secretion from normal cells

CCN(CCO)CCCC(C)Nc1ccnc2cc(Cl)ccc12 (stereo not drawn) [HCQ, hydroxychloroquine]
Par-4 levels in plasma (Par-4): elevated Par-4 levels in the plasma
apoptosis in patients' tumors (Par-4): induced apoptosis in their tumors

B1: recombinant Par-4: recombinant tumor suppressor Prostate Apoptosis Response-4 protein, binds receptor GRP78 (protein, UniProt Q96IZ0 1-340, looked up)
PRKC apoptosis WT1 regulator …: MATGGYRTSSGLGGSTTDFLEEWKAKREKMRAKQNPPGPAPPGGGSSDAAGKPPAGALGTPAAAAANELNNNLPGGAPAAPAVPGPGGVNCAVGSAMLTRAAPGPRRSEDEPPAASASAAPPPQRDEEEPDGVPEKGKSSGPSARKGKGQIEKRKLREKRRSTGVVNIPAAECLDEYEDDEAGQKERKREDAITQQNTIQNEAVNLLDPGSSYLLQEPPRTVSGRYKSTTSVSEEDVSSRYSRTDRSGFPRYNRDANVSGTLVSSSTLEKKIEDLEKEVVRERQENLRLVRLMQDKEEMIGKLKEEIDLLNRDLDDIEDENEQLKQENKTLLKVVGQLTR
apoptosis (active caspase-3 positive cells), CZT together with recombinant Par-4 ([2]; CZT (1 μM) + recombinant Par-4 (100 nM), A549/EML4-ALK, A549, A549TR, H1299, KP-7B cells, FIG. 1A): increased apoptosis
